Experimental data reported in ChEMBL document CHEMBL3885881, “DrugMatrix”.

Species on record: Rattus norvegicus
Test: DrugMatrix - Regimen: Daily Repeat
Assay type: toxicity, organism-based, Sprague-Dawley
Set-up: regimen Daily Repeat, gender Male, age 6-8 weeks
Conditions: in vivo, po, route oral GAVAGE, vehicle 100 % WATER; for ABSOLUTE BASOPHIL / ABSOLUTE EOSINOPHIL / ABSOLUTE LYMPHOCYTE / ABSOLUTE MONOCYTE / ABSOLUTE SEGMENTED NEUTROPHIL / BASOPHIL / EOSINOPHIL / ERYTHROCYTE COUNT / HEMATOCRIT / HEMOGLOBIN / LEUKOCYTE COUNT / LYMPHOCYTE / MEAN CORPUSCULAR HEMOGLOBIN / MEAN CORPUSCULAR HEMOGLOBIN CONCENTRATION / MEAN CORPUSCULAR VOLUME / MONOCYTE / NEUTROPHIL / NUCLEATED RED BLOOD CELLS / PLATELET COUNT: tissue Blood; for ALANINE AMINOTRANSFERASE / ALBUMIN / ALKALINE PHOSPHATASE / ASPARTATE AMINOTRANSFERASE / BLOOD UREA NITROGEN / CARBON DIOXIDE / CHLORIDE / CHOLESTEROL / CREATINE PHOSPHOKINASE / CREATININE / GLUCOSE / LACTATE DEHYDROGENASE / LIPASE / PHOSPHORUS / POTASSIUM / SODIUM / TOTAL BILIRUBIN / TOTAL PROTEIN / URIC ACID: tissue Plasma
[1] = 0 mg/kg, 72 h, dose level Control, time 3 day
[2] = 0 mg/kg, 120 h, dose level Control, time 5 day
[3] = 19.5 mg/kg, 72 h, dose level Low, time 3 day

CN1CCC[C@H]1c1cccnc1 [NICOTINE]
ABSOLUTE BASOPHIL [1]: 0 CELLS/uL | ABSOLUTE EOSINOPHIL [1]: 0 CELLS/uL | ABSOLUTE LYMPHOCYTE [1]: 10386.33 CELLS/uL | ABSOLUTE MONOCYTE [1]: 88.5 CELLS/uL | ABSOLUTE SEGMENTED NEUTROPHIL [1]: 1008.5 CELLS/uL | BASOPHIL [1]: 0% | EOSINOPHIL [1]: 0% | ERYTHROCYTE COUNT [1]: 5.16 x10E6/uL | HEMATOCRIT [1]: 32.43% | HEMOGLOBIN [1]: 12.98 G/DL | LEUKOCYTE COUNT [1]: 11.48 x10E3/uL | LYMPHOCYTE [1]: 92.33% | MEAN CORPUSCULAR HEMOGLOBIN [1]: 25.23 pg | MEAN CORPUSCULAR HEMOGLOBIN CONCENTRATION [1]: 40.08 G/DL | MEAN CORPUSCULAR VOLUME [1]: 62.95 fL | MONOCYTE [1]: 0.67% | NEUTROPHIL [1]: 7% | NUCLEATED RED BLOOD CELLS [1]: 0 /100WBC | PLATELET COUNT [1]: 1016.67 x10E3/uL | ALANINE AMINOTRANSFERASE [1]: 62.17 u/L | ALBUMIN [1]: 3.95 G/DL | ALKALINE PHOSPHATASE [1]: 363.5 u/L | ASPARTATE AMINOTRANSFERASE [1]: 118 u/L | BLOOD UREA NITROGEN [1]: 14.5 mg/dL | CARBON DIOXIDE [1]: 22.83 mmol/L | CHLORIDE [1]: 100.67 MEQ/L | CHOLESTEROL [1]: 66 mg/dL | CREATINE PHOSPHOKINASE [1]: 1308.83 u/L | CREATININE [1]: 0.22 mg/dL | GLUCOSE [1]: 187.5 mg/dL | LACTATE DEHYDROGENASE [1]: 380.17 u/L | LIPASE [1]: 16.17 u/L | PHOSPHORUS [1]: 14.27 mg/dL | POTASSIUM [1]: 6.8 MEQ/L | SODIUM [1]: 142.53 MEQ/L | TOTAL BILIRUBIN [1]: 0.2 mg/dL | TOTAL PROTEIN [1]: 5.68 G/DL | URIC ACID [1]: 2.87 mg/dL | ABSOLUTE BASOPHIL [2]: 0 CELLS/uL | ABSOLUTE EOSINOPHIL [2]: 80 CELLS/uL | ABSOLUTE LYMPHOCYTE [2]: 13301.33 CELLS/uL | ABSOLUTE MONOCYTE [2]: 180.83 CELLS/uL | ABSOLUTE SEGMENTED NEUTROPHIL [2]: 1187.83 CELLS/uL | BASOPHIL [2]: 0% | EOSINOPHIL [2]: 0.5% | ERYTHROCYTE COUNT [2]: 5.54 x10E6/uL | HEMATOCRIT [2]: 35.65% | HEMOGLOBIN [2]: 14.22 G/DL | LEUKOCYTE COUNT [2]: 14.75 x10E3/uL | LYMPHOCYTE [2]: 90.67% | MEAN CORPUSCULAR HEMOGLOBIN [2]: 25.65 pg | MEAN CORPUSCULAR HEMOGLOBIN CONCENTRATION [2]: 39.88 G/DL | MEAN CORPUSCULAR VOLUME [2]: 64.35 fL | MONOCYTE [2]: 1% | NEUTROPHIL [2]: 7.83% | NUCLEATED RED BLOOD CELLS [2]: 0.17 /100WBC | PLATELET COUNT [2]: 1285.33 x10E3/uL | ALANINE AMINOTRANSFERASE [2]: 51.67 u/L | ALBUMIN [2]: 4.08 G/DL | ALKALINE PHOSPHATASE [2]: 391.5 u/L | ASPARTATE AMINOTRANSFERASE [2]: 99.5 u/L | BLOOD UREA NITROGEN [2]: 15.5 mg/dL | CARBON DIOXIDE [2]: 28.33 mmol/L | CHLORIDE [2]: 101.83 MEQ/L | CHOLESTEROL [2]: 67.83 mg/dL | CREATINE PHOSPHOKINASE [2]: 771.33 u/L | CREATININE [2]: 0.23 mg/dL | GLUCOSE [2]: 156.5 mg/dL | LACTATE DEHYDROGENASE [2]: 544.33 u/L | LIPASE [2]: 10.17 u/L | PHOSPHORUS [2]: 12.03 mg/dL | POTASSIUM [2]: 6.81 MEQ/L | SODIUM [2]: 144.13 MEQ/L | TOTAL BILIRUBIN [2]: 0.22 mg/dL | TOTAL PROTEIN [2]: 6 G/DL | URIC ACID [2]: 2.18 mg/dL | ABSOLUTE BASOPHIL [3]: 0 CELLS/uL | ABSOLUTE EOSINOPHIL [3]: 274 CELLS/uL | ABSOLUTE LYMPHOCYTE [3]: 12164.33 CELLS/uL | ABSOLUTE MONOCYTE [3]: 176.67 CELLS/uL | ABSOLUTE SEGMENTED NEUTROPHIL [3]: 1085 CELLS/uL | BASOPHIL [3]: 0% | EOSINOPHIL [3]: 2% | ERYTHROCYTE COUNT [3]: 5.66 x10E6/uL | HEMATOCRIT [3]: 36.1% | HEMOGLOBIN [3]: 14.13 G/DL | LEUKOCYTE COUNT [3]: 13.7 x10E3/uL | LYMPHOCYTE [3]: 88.67% | MEAN CORPUSCULAR HEMOGLOBIN [3]: 24.97 pg | MEAN CORPUSCULAR HEMOGLOBIN CONCENTRATION [3]: 39.17 G/DL | MEAN CORPUSCULAR VOLUME [3]: 63.73 fL | MONOCYTE [3]: 1.33% | NEUTROPHIL [3]: 8% | NUCLEATED RED BLOOD CELLS [3]: 0 /100WBC | PLATELET COUNT [3]: 1341.67 x10E3/uL | ALANINE AMINOTRANSFERASE [3]: 53.67 u/L | ALBUMIN [3]: 4.07 G/DL | ALKALINE PHOSPHATASE [3]: 372.67 u/L | ASPARTATE AMINOTRANSFERASE [3]: 86.33 u/L | BLOOD UREA NITROGEN [3]: 14 mg/dL | CARBON DIOXIDE [3]: 22 mmol/L | CHLORIDE [3]: 103 MEQ/L | CHOLESTEROL [3]: 69 mg/dL | CREATINE PHOSPHOKINASE [3]: 441.67 u/L | CREATININE [3]: 0.28 mg/dL | GLUCOSE [3]: 182.33 mg/dL | LACTATE DEHYDROGENASE [3]: 226.33 u/L | LIPASE [3]: 10.67 u/L | PHOSPHORUS [3]: 12.5 mg/dL | POTASSIUM [3]: 5.92 MEQ/L | SODIUM [3]: 144.87 MEQ/L | TOTAL BILIRUBIN [3]: 0.2 mg/dL | TOTAL PROTEIN [3]: 5.77 G/DL | URIC ACID [3]: 1.67 mg/dL
